Patent US6479067B2, “Methods for treating ovarian cancer, poly (phosphoester) compositions, and biodegradable articles for same” (Guilford Pharmaceuticals, Inc., priority 1999, dated 2002)
Counter-ions that a name gives are not always drawn. Like-named read-outs stand apart in the source and are kept apart here.

How the values were obtained:
[1] = for Paclitaxel Concentration (plasma): 120 mg/kg i.p.
[2] = Subcutaneous injection: implant site macrophage counts and irritation scores; format: in vivo, male S-D rats; details: s.c.
[3] = test system: melanoma cell line B16/F10
[4] = 0.7 ml (polymers 89 mg/kg), 7 Day
[5] = 0.7 ml (polymers 89 mg/kg), 14 Day
[6] = 0.7 ml (polymers 89 mg/kg), 31 Day
[7] = 2.0 ml (polymers 267 mg/kg), 7 Day
[8] = 2.0 ml (polymers 267 mg/kg), 14 Day
[9] = 2.0 ml (polymers 267 mg/kg), 31 Day
[10] = 28 days, formulation injected on Day 3
[11] = 28 days, formulation injected on Day 7
[12] = 42 days, formulation injected on Day 3
[13] = 42 days, formulation injected on Day 7

In the case of CC(=O)O[C@H]1C(=O)[C@@]2(C)[C@H]([C@H](OC(=O)c3ccccc3)[C@]3(O)C[C@H](OC(=O)[C@H](O)[C@@H](NC(=O)c4ccccc4)c4ccccc4)C(C)=C1C3(C)C)[C@]1(OC(C)=O)CO[C@@H]1C[C@@H]2O [Paclitaxel w/o polymer, paclitaxel], the “Paclitaxel Concentration (plasma)” value ([1]; 14 days) is reported as “Animal died”, the “Paclitaxel Concentration (plasma)” value ([1]; 28 days) is reported as “Animal died” and the Tolerability ([1]; comparable dose given intraperitoneally) is reported as “could not tolerate the dose”.

For CC(=O)O [Acetic Acid], the “# = Mean count (implant site macrophages)” value (from here on “# = Mean count”) [2, 4] was 208, the Irritation [2, 4] was “Mild (200-400 Mild Irritation)” and the “# = Mean count” value [2, 5] was 166. The Irritation [2, 5] was “Sl. (0-200 Slight Irritation)”, the “# = Mean count” value [2, 6] was 20 and the Irritation [2, 6] was “Sl. (0-200 Slight Irritation)”. The “# = Mean count” value [2, 7] was 267, the Irritation [2, 7] was “Mild (200-400 Mild Irritation)” and the “# = Mean count” value [2, 8] was 334. For the same compound, the Irritation [2, 8] was “Mild (200-400 Mild Irritation)”, the “# = Mean count” value [2, 9] was 32 and the Irritation [2, 9] was “Sl. (0-200 Slight Irritation)”.

With COc1cccc2c1C(=O)c1c(O)c3c(c(O)c1C2=O)C[C@@](O)(C(=O)CO)C[C@@H]3O[C@H]1C[C@H](N)[C@H](O)[C@H](C)O1 [Bolus Dox, doxorubicin hydrochloride] the “Number of Mice Survived” value [3, 10] was 8, the “Tumor Volume (mm^3 ± SEM) After Tumor Injection” value [3, 10] was 1218.9 ± 304.1 mm^3 and the “Number of Mice Survived” value [3, 11] was 8. The “Tumor Volume (mm^3 ± SEM) After Tumor Injection” value [3, 11] was 1661.2 ± 301.8 mm^3, the “Number of Mice Survived” value [3, 12] was 5 and the “Tumor Volume (mm^3 ± SEM) After Tumor Injection” value [3, 12] was 3942.5 ± 1818 mm^3. For the same compound, the “Number of Mice Survived” value [3, 13] was 3, the “Tumor Volume (mm^3 ± SEM) After Tumor Injection” value [3, 13] was 4394.3 ± 741.3 mm^3 and the “Early death after injection” value ([3]; about 3-4 days after the injections) was “did not produce early death”.
